In patent US7538092B2, “Pharmaceutically active oligosaccharide conjugates” (Fresenius Kabi Deutschland GmbH, priority 2002, dated 2009):

Experiment: Determination of solubility in water / PBS
Type: physicochemical
Conditions: only using solution with extreme pH values

With `C[C@@H]1[C@H](O)[C@@H](C)/C=C/C=C/C=C/C=C/C=C/C=C/C=C/[C@H](O[C@@H]2O[C@H](C)[C@@H](O)[C@H](N)[C@@H]2O)C[C@@H]2O[C@](O)(C[C@@H](O)C[C@@H](O)[C@H](O)CC[C@@H](O)C[C@@H](O)CC(=O)O[C@H]1C)C[C@H](O)[C@H]2C(=O)O` [Amphotericin B] the water solubility was “around 0.1 mg per ml”.
